Experimental data from ChEMBL document CHEMBL4613210, “Tacrines for Alzheimer's disease therapy. III. The PyridoTacrines” (Eur J Med Chem, 2019).
Values belong to the compound of their own block, whether it stands above or below them.

Tests used:
[1] = molecular target: Acetylcholinesterase (Electrophorus electricus, UniProt O42275)
Description: Inhibition of electric eel AChE

[2] = molecular target: Voltage-gated calcium channel
Description: Inhibition of VGCC (unknown origin)

[3] = molecular target: T1, Acetylcholinesterase (Bos taurus, UniProt P23795); test: Inhibition of bovine erythrocytes AChE using acetylthiocholine iodide as substrate by Ellman's methods
T1 sequence (P23795 whole entry): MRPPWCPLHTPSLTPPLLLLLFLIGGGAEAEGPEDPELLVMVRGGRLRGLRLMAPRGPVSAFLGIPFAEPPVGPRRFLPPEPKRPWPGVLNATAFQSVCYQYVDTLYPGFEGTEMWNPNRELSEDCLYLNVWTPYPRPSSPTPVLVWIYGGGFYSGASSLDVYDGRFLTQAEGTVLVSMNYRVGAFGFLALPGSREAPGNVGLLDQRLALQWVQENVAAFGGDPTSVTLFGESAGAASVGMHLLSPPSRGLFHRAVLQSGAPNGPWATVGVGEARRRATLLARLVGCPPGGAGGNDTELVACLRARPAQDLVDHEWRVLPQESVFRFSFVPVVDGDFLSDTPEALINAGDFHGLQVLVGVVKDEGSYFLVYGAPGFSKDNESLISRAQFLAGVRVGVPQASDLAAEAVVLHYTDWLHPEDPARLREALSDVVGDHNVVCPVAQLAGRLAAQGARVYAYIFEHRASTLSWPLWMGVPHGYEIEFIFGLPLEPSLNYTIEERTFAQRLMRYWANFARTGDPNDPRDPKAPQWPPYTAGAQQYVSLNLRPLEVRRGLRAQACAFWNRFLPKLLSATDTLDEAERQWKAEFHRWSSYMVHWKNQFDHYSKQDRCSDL

[4] = molecular target: T2, Cholinesterase (Homo sapiens, UniProt P06276)
T2 sequence (P06276 whole entry): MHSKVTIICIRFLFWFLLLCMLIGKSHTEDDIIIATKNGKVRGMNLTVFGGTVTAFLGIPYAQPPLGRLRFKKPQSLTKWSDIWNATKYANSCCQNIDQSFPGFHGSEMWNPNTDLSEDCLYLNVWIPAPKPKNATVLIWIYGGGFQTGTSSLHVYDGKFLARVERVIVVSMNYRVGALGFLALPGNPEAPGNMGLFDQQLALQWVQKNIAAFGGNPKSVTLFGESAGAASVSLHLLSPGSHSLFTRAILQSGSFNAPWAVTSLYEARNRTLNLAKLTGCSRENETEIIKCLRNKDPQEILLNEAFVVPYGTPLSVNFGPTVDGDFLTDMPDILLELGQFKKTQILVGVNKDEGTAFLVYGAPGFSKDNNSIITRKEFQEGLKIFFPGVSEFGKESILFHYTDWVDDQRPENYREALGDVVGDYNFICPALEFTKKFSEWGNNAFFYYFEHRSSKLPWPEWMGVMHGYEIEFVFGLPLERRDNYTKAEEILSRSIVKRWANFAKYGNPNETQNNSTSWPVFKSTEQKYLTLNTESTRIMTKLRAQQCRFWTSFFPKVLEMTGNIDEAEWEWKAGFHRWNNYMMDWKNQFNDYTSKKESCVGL
Description: Inhibition of human serum BuChE using butyrylthiocholine iodide as substrate by Ellman's methods

[5] = molecular target: T2, Cholinesterase; remark: listed apart in the source
Description: Inhibition of BuChE (unknown origin)

[6] = molecular target: Acetylcholinesterase (Homo sapiens, UniProt P22303); test: Inhibition of human AChE
Chain of Acetylcholinesterase (Homo sapiens, UniProt P22303) (P22303 whole entry): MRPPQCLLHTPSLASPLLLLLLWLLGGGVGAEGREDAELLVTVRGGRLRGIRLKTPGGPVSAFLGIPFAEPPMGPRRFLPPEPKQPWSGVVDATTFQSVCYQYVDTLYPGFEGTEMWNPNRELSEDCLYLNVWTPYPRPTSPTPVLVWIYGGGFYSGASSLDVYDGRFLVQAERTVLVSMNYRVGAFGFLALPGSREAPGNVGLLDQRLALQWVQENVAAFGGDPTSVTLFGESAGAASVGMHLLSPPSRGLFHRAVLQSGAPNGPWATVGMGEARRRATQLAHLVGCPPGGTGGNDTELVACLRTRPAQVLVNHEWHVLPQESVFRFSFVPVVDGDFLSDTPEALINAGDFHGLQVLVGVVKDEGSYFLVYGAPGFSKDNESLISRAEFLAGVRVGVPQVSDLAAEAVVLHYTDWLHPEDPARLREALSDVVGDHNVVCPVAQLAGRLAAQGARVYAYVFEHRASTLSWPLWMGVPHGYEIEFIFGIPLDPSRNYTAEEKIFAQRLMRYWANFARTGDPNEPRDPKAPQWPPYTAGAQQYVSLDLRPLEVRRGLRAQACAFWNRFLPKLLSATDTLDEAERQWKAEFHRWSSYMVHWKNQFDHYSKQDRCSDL

[7] = molecular target: T2, Cholinesterase; test: Inhibition of human BuChE

Chain of Acetylcholinesterase (Electrophorus electricus, UniProt O42275) (O42275 whole entry): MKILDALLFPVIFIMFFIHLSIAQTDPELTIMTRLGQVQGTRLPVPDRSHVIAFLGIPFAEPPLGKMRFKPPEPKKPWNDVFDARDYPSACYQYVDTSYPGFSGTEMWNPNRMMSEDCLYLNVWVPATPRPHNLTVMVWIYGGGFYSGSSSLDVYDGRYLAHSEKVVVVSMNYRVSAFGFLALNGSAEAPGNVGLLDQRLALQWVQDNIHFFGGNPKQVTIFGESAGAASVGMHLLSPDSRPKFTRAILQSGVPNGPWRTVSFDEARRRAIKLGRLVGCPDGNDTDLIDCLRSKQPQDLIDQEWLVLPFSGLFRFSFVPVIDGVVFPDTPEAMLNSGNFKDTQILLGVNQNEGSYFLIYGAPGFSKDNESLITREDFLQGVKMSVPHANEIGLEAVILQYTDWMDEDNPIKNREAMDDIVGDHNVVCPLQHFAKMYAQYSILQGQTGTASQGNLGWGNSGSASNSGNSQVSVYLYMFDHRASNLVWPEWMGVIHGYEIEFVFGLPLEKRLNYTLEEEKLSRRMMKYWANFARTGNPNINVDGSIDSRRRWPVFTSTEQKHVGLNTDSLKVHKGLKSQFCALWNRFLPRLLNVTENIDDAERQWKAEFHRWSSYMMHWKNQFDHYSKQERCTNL

SMILES: CCOC(=O)c1c(C)nc2nc3c(c(N)c2c1-c1ccc(C)cc1)CCCCC3
IC50 [1]: 13 µM
IC50 [2]: 24 µM

SMILES: CCOC(=O)c1c(C)nc2nc3c(c(N)c2c1-c1ccccc1OC)CCCCC3
IC50 [1]: 22 µM
IC50 [2]: 17 µM

SMILES: CCOC(=O)c1c(C)nc2nc3c(c(N)c2c1-c1ccc(Cl)cc1)CCCCC3
IC50 [1]: 19 µM
IC50 [2]: 27 µM

SMILES: CCOC(=O)c1c(C)nc2nc3c(c(N)c2c1-c1ccccc1)CCCCCC3
IC50 [1]: 17 µM
IC50 [2]: 10 µM

SMILES: CCOC(=O)c1c(C)nc2nc3c(c(N)c2c1-c1ccc(OC)cc1)CCCCCC3
IC50 [1]: 17 µM
IC50 [2]: 20 µM

SMILES: CCOC(=O)c1c(C)nc2nc3c(c(N)c2c1-c1ccc(OC)cc1)CCCCC3
IC50 ([3]; read-out: IC50): 1.3 µM
IC50 [4]: 80.6 µM

SMILES: CCOC(=O)c1c(C)nc2nc3c(c(N)c2c1-c1ccc(OC)c(OC)c1)CCCC3
IC50 [1]: 1.3 µM
IC50 [2]: 26 µM

SMILES: CCOC(=O)c1c(C)nc2nc3c(c(N)c2c1-c1ccc(F)cc1)CCCC3
IC50 [1]: 0.7 µM
IC50 [5]: 12 µM
IC50 [2]: 38 µM

SMILES: CCOC(=O)c1c(C)nc2nc3c(c(N)c2c1-c1ccc(F)cc1)CCCCC3
IC50 [1]: 5.4 µM
IC50 [2]: 17 µM

SMILES: CCOC(=O)c1c(C)nc2nc3c(c(N)c2c1-c1ccc(Cl)cc1)CCCC3
IC50 [1]: 1.3 µM
IC50 [5]: 52 µM
IC50 [2]: 34 µM

SMILES: CCOC(=O)c1c(C)nc2nc3c(c(N)c2c1-c1ccc(OC)c(OC)c1)CCCCC3
IC50 [1]: 6.4 µM
IC50 [2]: 9 µM

SMILES: Cc1nc2nc3c(c(N)c2c(-c2ccccc2)c1C(=O)OC(C)C)CCCC3
IC50 [1]: 1.2 µM
IC50 [5]: 12 µM
IC50 [2]: 10 µM

SMILES: CCOC(=O)c1c(C)nc2nc3c(c(N)c2c1-c1ccccc1)CCCC3
IC50 [3]: 0.82 µM
IC50 [4]: 5 µM
IC50 [5]: 5 µM
IC50 [2]: 20 µM

SMILES: CCOC(=O)c1c(C)nc2nc3c(c(N)c2c1-c1ccccc1)CCCCC3
IC50 [3]: 21 µM

SMILES: CCOC(=O)c1c(C)nc2nc3c(c(N)c2c1-c1ccc(OC)cc1)CCCC3
IC50 [3]: 9 µM

SMILES: CCOC(=O)c1c(C)nc2nc3c(c(N)c2c1-c1ccccc1)CCC3
IC50 [3]: 11.9 µM

SMILES: CCOC(=O)c1c(C)nc2nc3c(c(N)c2c1-c1ccc(OC)cc1)CCC3
IC50 ([3]; read-out: IC50): 14 µM

SMILES: CCOC(=O)c1c(C)nc2nc3c(c(N)c2c1-c1cccc(OC)c1)CCCC3
IC50 [1]: 1.2 µM
IC50 [5]: 31 µM
IC50 [2]: 15 µM

SMILES: CCOC(=O)c1c(C)nc2nc3c(c(N)c2c1-c1cccc([N+](=O)[O-])c1)CCCC3
IC50 [1]: 0.9 µM
IC50 [5]: 21 µM
IC50 [2]: 18 µM

SMILES: CCOC(=O)c1c(C)nc2nc3c(c(N)c2c1-c1ccc([N+](=O)[O-])cc1)CCCCC3
IC50 [1]: 14 µM
IC50 [2]: 13 µM

IC50 [2]: 9 µM
SMILES: CCOC(=O)c1c(C)nc2nc3c(c(N)c2c1-c1cccc(OC)c1)CCCCC3

SMILES: COc1ccc(C2c3c(nc4c(c3N)CCCC4)Oc3ccc4ccccc4c32)cc1OC (racemic)
IC50 [6]: 0.083 µM

SMILES: COc1cc(C2c3ccc(O)cc3Oc3nc4c(c(N)c32)CCCC4)cc(OC)c1OC (racemic)
IC50 ([3]; read-out: IC50): 0.041 µM

SMILES: CCOC(=O)C1=C(C)Oc2nc3c(c(N)c2C1c1ccc(OC)cc1)CCCC3 (racemic)
IC50 [7]: 6.2 µM
IC50 ([3]; read-out: IC50): 0.87 µM
IC50 [4]: 6.2 µM
